Values quoted from earlier work as cited in patent publication US20160296513A1 (Teva Pharmaceutical Industries Ltd., priority 2013, published 2016).

Tests used:
[1] = in vivo
[2] = tested on: genes related to antigen presentation and corresponding inflammatory pathways; conditions: mainly via the NFkB pathway
[3] = tested on: first-line treatment-refractory RRMS; conditions: CARE-MS II
[4] = tested on: multiple sclerosis patients; conditions: human, in vivo
[5] = tested on: relapsing-remitting multiple sclerosis (RRMS); conditions: CARE-MS I, vs interferon beta-1a

Molecule | oral bioavailability [1] | suppression of genes related to antigen presentation and corresponding inflammatory pathways [2] | neurodegeneration and non-relapse-dependent disability progression (MS; in MS) | Confirmed Disease Progression (CDP) (MS; unexplained by inflammatory markers) | accumulation of disability [3] | relapse rates [3] | depletion repletion pattern for T cells, B cells and monocytes [4] | effect on inflammatory axis [4] | relapse ([5]; 12 mg/day IV 5 days at Month 0, 3 days at Month 12) | disability endpoints [5]
CCN(C(=O)c1c(O)c2c(Cl)cccc2n(C)c1=O)c1ccccc1 [Laquinimod, 5-chloro-N-ethyl-4-hydroxy-1-methyl-2-oxo-N-phenyl-1,2-dihydroquinoline-3-carboxamide] | high | induced suppression | showed potential for slowing neurodegeneration and reducing non-relapse-dependent disability progression | sustain Confirmed Disease Progression (CDP) |  |  |  |  |  | 
Alemtuzumab: recombinant DNA-derived humanized monoclonal IgGlx antibody raised against CD52 |  |  |  |  | sustain accumulation of disability | reduce relapse rates | well characterized depletion repletion pattern | large and sustained | reduction of relapse | did not show benefit
